Where a name gives a salt, the structure may show the parent alone. Read-outs that look alike come from different tables or passages of the source.
Columns and labels:
human DGKζ = biological target: T1, human DGKζ (Homo sapiens, UniProt Q13574); experiment: DGKζ LIPGLO assay (extruded liposome substrate), in vitro DGK inhibition; assay type: biochemical; details: read-out: DGKz LIPGLO IC50
T1 construct: TVMV protease cleavage site (C); Hexa-His (C); made in house; host or cells: Sf9 insect cells (baculovirus, Bac-to-Bac)
T1 sequence (Q13574 with tags, fused parts or gaps isoform Q13574-4): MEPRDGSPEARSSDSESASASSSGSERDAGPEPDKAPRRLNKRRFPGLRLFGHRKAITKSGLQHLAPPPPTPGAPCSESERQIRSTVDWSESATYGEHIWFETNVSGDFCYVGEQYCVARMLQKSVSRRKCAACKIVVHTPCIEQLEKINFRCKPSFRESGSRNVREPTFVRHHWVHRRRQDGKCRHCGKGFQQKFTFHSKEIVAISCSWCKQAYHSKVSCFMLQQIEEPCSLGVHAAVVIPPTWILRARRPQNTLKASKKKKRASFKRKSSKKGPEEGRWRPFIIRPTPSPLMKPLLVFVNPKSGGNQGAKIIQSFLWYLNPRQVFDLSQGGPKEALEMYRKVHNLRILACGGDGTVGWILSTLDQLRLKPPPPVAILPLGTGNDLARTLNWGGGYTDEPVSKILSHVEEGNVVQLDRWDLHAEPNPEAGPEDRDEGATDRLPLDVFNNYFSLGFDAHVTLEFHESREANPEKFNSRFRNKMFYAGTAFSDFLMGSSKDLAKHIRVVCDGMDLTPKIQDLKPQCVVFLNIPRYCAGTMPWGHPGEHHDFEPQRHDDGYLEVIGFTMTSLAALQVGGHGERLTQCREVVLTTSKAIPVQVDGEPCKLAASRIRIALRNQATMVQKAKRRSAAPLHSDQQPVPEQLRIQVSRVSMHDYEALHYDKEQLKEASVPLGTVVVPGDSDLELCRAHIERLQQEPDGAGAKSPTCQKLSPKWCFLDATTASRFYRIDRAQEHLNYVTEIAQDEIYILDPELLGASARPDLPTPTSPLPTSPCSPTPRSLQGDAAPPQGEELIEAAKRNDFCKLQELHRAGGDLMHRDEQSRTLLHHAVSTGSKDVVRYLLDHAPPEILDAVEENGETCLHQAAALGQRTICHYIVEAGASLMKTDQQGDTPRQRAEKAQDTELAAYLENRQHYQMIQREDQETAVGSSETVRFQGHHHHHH

human DGKα = biological target: T2, human DGKα (Homo sapiens, UniProt P23743); experiment: DGKα LIPGLO assay (extruded liposome substrate), in vitro DGK inhibition; assay type: biochemical; details: read-out: DGKa LIPGLO IC50
T2 construct: TVMV protease cleavage site (C); Hexa-His (C); made in house; host or cells: Sf9 insect cells (baculovirus, Bac-to-Bac)
T2 sequence (P23743 with tags, fused parts or gaps): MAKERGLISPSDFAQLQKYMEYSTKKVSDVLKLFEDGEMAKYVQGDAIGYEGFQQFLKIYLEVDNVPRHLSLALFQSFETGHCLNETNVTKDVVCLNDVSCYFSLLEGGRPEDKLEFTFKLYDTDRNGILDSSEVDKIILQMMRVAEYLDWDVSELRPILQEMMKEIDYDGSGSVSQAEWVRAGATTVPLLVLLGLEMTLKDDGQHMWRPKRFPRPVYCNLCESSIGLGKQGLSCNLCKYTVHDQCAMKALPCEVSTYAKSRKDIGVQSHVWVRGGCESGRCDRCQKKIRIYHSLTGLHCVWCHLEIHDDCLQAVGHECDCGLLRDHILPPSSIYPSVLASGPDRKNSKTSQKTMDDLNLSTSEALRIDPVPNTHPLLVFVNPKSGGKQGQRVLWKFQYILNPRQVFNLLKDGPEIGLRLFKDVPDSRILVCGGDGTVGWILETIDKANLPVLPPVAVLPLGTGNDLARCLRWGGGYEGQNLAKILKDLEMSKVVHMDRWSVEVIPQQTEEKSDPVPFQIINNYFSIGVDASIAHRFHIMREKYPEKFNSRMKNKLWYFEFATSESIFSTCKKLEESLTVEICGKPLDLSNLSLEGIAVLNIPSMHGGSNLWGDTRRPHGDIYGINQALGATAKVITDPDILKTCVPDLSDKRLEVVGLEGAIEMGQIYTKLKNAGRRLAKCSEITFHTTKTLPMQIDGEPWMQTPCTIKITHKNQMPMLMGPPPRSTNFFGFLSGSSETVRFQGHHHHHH

Row | SMILES | IC50 (human DGKζ; liposome (LIPGLO) assay) [µM] | IC50 (human DGKα; liposome (LIPGLO) assay) [µM] | IC50 (human DGKζ; DGKζ liposome (LIPGLO) assay) [µM] | IC50 (human DGKα; DGKα liposome (LIPGLO) assay) [µM]
1 | Cn1c(=O)cc(N2CCN(C(c3ccc(F)cc3)c3ccc(F)cc3)CC2C#N)c2nc(C#N)ccc21 (centres unmarked) [Example 145, 8-(4-(bis(4-fluorophenyl)methyl)-2-cyanopiperazin-1-yl)-5-methyl-6-oxo-5,6-dihydro-1,5-naphthyridine-2-carbonitrile] | 23 | 9 | – | –
2 | CC(c1cc(F)c(F)c(F)c1)N1C[C@H](C)N(c2cc(=O)n(C)c3ccc(C#N)nc23)C[C@H]1C (single isomer, unassigned) [Example 1241] | 0.6 | 3.8 | – | –
3 | CCC(c1ccc(OC(C)(C)C)cc1)N1C[C@H](C)N(c2cc(=O)n(C)c3ccc(C#N)nc23)C[C@H]1C (single isomer, unassigned) [Example 1444] | 0.48 | 10 | – | –
4 | CC[C@@H]1CN(c2cc(=O)n(C)c3ccc(C#N)nc23)[C@@H](C)CN1C(C)c1ccc(F)cc1F (single isomer, unassigned) [Example 1087] | 0.086 | 0.072 | – | –
5 | C[C@@H]1CN(c2c(C#N)c(=O)n(C)c3ccc(C#N)nc23)CCN1C(c1ccc(F)cc1)c1cccc2c1OC(C)(C)C2 (single isomer, unassigned) [Example 934] | – | – | 5.4 | 8.6
6 | Cc1cc(C(c2ccc(F)cc2)N2C[C@H](C)N(c3c(C#N)c(=O)n(C)c4ccc(C#N)nc34)C[C@H]2C)no1 (single isomer, unassigned) [Example 865] | – | – | 14 | 18
7 | Cn1c(=O)cc(N2CCN(C(c3ccc(F)cc3)c3ccc(F)cc3)CC2C(N)=O)c2nc(C#N)ccc21 (single isomer, unassigned) [Example 141, 4-(bis(4-fluorophenyl)methyl)-1-(6-cyano-1-methyl-2-oxo-1,2-dihydro-1,5-naphthyridin-4-yl)piperazine-2-carboxamide] | 200 | 240 | – | –
8 | CC[C@@H]1CN(c2cc(=O)n(C)c3ccc(C#N)nc23)[C@@H](C)CN1C(CC1CCCCC1)c1ccc(OC(F)(F)F)cc1 (some centres unmarked) [Example 1196] | 0.27 | 1.4 | – | –
9 | CC(C)C(C)(F)C1CN(c2cc(=O)n(C)c3ccc(C#N)nc23)CCN1C(c1ccc(F)cc1)c1ccc(F)cc1 (single isomer, unassigned) [Example 91, 8-(4-(bis(4-fluorophenyl)methyl)-3-(2-fluoro-3-methylbutan-2-yl)piperazin-1-yl)-5-methyl-6-oxo-5,6-dihydro-1,5-naphthyridine-2-carbonitrile, TFA] | 240 | 240 | – | –
10 | CC(c1ccc(C#N)c(OCCN(C)C)c1)N1C[C@H](C)N(c2cc(=O)n(C)c3ccc(C#N)nc23)C[C@H]1C (single isomer, unassigned) [Example 1323] | 7.1 | 130 | – | –
11 | Cc1nccc(C(c2ccc(F)cc2)N2CCN(c3c(C#N)c(=O)n(C)c4ccc(C#N)nc34)C[C@H]2C)n1 (stereo partly drawn) [Example 316, 8-((3R)-4-((4-fluorophenyl)(2-methylpyrimidin-4-yl)methyl)-3-methylpiperazin-1-yl)-5-methyl-6-oxo-5,6-dihydro-1,5-naphthyridine-2,7-dicarbonitrile] | 0.93 | 2.4 | – | –
12 | CC(c1cccc(C(F)(F)F)c1)N1CCN(c2c(C#N)c(=O)n(C)c3ccc(C#N)nc23)C[C@H]1C (single isomer, unassigned) [Example 972] | – | – | 15 | 20
13 | CC[C@@H]1CN(c2cc(=O)n(C)c3ccc(C#N)nc23)[C@@H](CC)CN1Cc1ccc(F)cc1 [Example 1061] | 0.1 | 0.011 | – | –
14 | C[C@@H]1CN(c2c(C#N)c(=O)n(C)c3ccc(C#N)nc23)CCN1C(c1ccc(F)cc1)c1cncnc1 (stereo partly drawn) [Example 317, 8-((3R)-4-((4-fluorophenyl)(pyrimidin-5-yl)methyl)-3-methylpiperazin-1-yl)-5-methyl-6-oxo-5,6-dihydro-1,5-naphthyridine-2,7-dicarbonitrile] | 13 | 3.8 | – | –
15 | COC(=O)C1CN(C(c2ccc(F)cc2)c2ccc(F)cc2)CCN1c1c(Br)c(=O)n(C)c2ccc(C#N)nc12 (centres unmarked) [Example 162, Methyl 4-(bis(4-fluorophenyl)methyl)-1-(3-bromo-6-cyano-1-methyl-2-oxo-1,2-dihydro-1,5-naphthyridin-4-yl)piperazine-2-carboxylate] | 2.4 | 1.9 | – | –
16 | CC[C@@H]1CN(c2cc(=O)n(C)c3ccc(C#N)nc23)[C@@H](C)CN1C(CC1CCCCC1)c1ccc(OC(F)(F)F)cc1 (some centres unmarked) [Example 1195] | 0.28 | 0.83 | – | –
17 | C[C@@H]1CN(c2cc(=O)n(C)c3ccc(C#N)nc23)[C@@H](C)CN1C(CF)c1ccc(F)cc1 (mixture of isomers) [Example 556, 8-[(2S,5R)-4-[2-fluoro-1-(4-fluorophenyl)ethyl]-2,5-dimethylpiperazin-1-yl]-5-methyl-6-oxo-5,6-dihydro-1,5-naphthyridine-2-carbonitrile] | 6 | 2.6 | – | –
18 | C[C@@H]1CN(c2c(C#N)c(=O)n(C)c3ccc(C#N)nc23)CCN1C(c1ccc(Cl)cc1)c1ccc(C#N)cc1 (single isomer, unassigned) [Example 872] | – | – | 1.4 | 1.5
19 | C[C@@H]1CN(c2cc(=O)n(C)c3ccc(C#N)nc23)[C@@H](C)CN1Cc1ccc(OC(F)F)cc1 [Example 588] | 7.4 | 0.091 | – | –

Source: patent publication US10669272B2, “Substituted naphthyridinone compounds useful as T cell activators” (BRISTOL-MYERS SQUIBB COMPANY, priority 2018, dated 2020)
